Experimental data published in patent US20060122234A1, “Substituted thienyl-hydroxamic acids as histone deacetylase inhibitors” (Argenta Discovery Limited, priority 2002, published 2006).
pIC50: −log10 of the molar value.

How the values were obtained:
[1] = test system: MCF-7 human mammary gland adenocarcinoma cells; assay: Cell proliferation assay (secondary assay), CyQUANT, MCF-7; assay type: cell-based; details: MCF7, MCF-7, 72h exposure, 0.1% DMSO
Method: (§1) Compounds are tested in a cell proliferation assay using the following cell lines:
Both cell lines are free of Mycoplasma contamination (PCR Mycoplasma Detection Set, Takara). MCF-7 are kept in MEM medium (Gibco) supplemented with 10% FCS and 1% Non Essential Amino Acids at 37° C. in a 5% CO2 humidified incubator.
(§2) Cells are seeded in 96-well plates at a density of 20,000 cells/ml (3,000 cells/well) and after 24 h they are exposed to different concentrations of compounds in 0.1% DMSO. Cells are grown for a further 72h, the media is removed and the cells are frozen at −80° C. for at least 30 minutes and lysed in a solution containing the CyQUANT dye. […] Therefore the fluorescence intensity is proportional to the number of cells present in each well and can be quantified using a multiwell fluorimeter by measuring the fluorescence of the solution at 520 nm.
(§3) The percent activity of the compounds in reducing cell number is calculated as follow: % activity={(A^S−B)/(A^C−B)}×100 where: […]
(§4) A^S is the fluorescence at 520 nm in the presence of the tested compound (Sample).
(§5) A^C is the fluorescence at 520 nm in the presence of vehicle 0.1% DMSO (Control).
(§6) B is the fluorescence at 520 nm in the absence of cells (Background fluorescence).
(§7) The IC50 is defined as the concentration at which a given compound achieves 50% activity. IC50 values are calculated using the XLfit software package (version 2.0.5).

[2] = test system: MDA-MB-231 human mammary gland adenocarcinoma cells; assay: Cell proliferation assay (secondary assay), CyQUANT, MDA-MB-231; assay type: cell-based; details: MDA-MB-231, 72h exposure, 0.1% DMSO
Method: as §1
MDA-MB-231 are kept in L-15 (Leibovitz) medium (Gibco) supplemented with 15% FCS at 37° C. in a non-modified atmosphere, humidified incubator.
as §2, §3, §4, §5, §6, §7

[3] = test system: histone deacetylase activity (total lysates from K562 cells or HeLa nuclear extracts); assay: Deacetylase assay (primary assay), fluorescent acetylated-lysine substrate; assay type: biochemical, human; details: 30 minutes, 116 μM fluorescent substrate, 1% DMSO; read-out: IC50 (histone deacetylase enzymatic activity)
Method: Compounds are tested for their capacity to inhibit histone deacetylase activity (primary assay) and for their biological effects on growing cells (secondary assay).
Total lysates from K562 chronic human myelogenous leukemia cells (obtained from American Type Culture Collection, Rockville, Md.) are used as source of HDAC activity. Cells are grown in RPMI media supplied with 10% FCS, harvested by centrifugation, washed once in PBS and resuspended at a density of 24×10^6/ml in HDA buffer (15 mM Potassium phosphate pH 7.5, 5% glycerol, 0.2 mM EDTA). After sonication, lysates are centrifuged at 1000 g for 20 minutes and the resulting supernatant is aliquoted and stored at −80° C. Alternatively, commercially available HeLa nuclear extracts (BIOMOL) are used as source of histone deacetylase activity.
The assay was carried out for 30 minutes using 116 μM of a fluorescent substrate containing an acetylated lysine (BIOMOL). When deacetylation of the lysine occurs, the substrate can react with the added developer producing a fluorophore. The amount of fluorophore produced is proportional to the HDAC activity in the sample and is quantified using a multiwell fluorimeter capable of excitation at 360 nm and detection at 450 nm.
Compounds are diluted in DMSO prior to addition to assay buffer, the final DMSO concentration in the assay being 1%.
The percent activity of the compounds in reducing histone deacetylase enzymatic activity is calculated as follow: % activity={(F^S−B)/(F^C−B)}×100 where: […]
F^S is the fluorescence at 450 nm in the presence of the tested compound (Sample).
F^C is the fluorescence at 450 nm in the presence of vehicle 1% DMSO (Control). B is the fluorescence at 450 nm in the absence of enzyme (Background fluorescence)
as §7

SMILES | pIC50 [1] | pIC50 [2] | pIC50 [3]
Cn1nc(C(F)(F)F)cc1-c1ccc(C(=O)NO)s1 [Example 1 (a), 5-(2-Methyl-5-trifluoromethyl-2H-pyrazol-3-yl)-thiophene-2-carboxylic acid hydroxyamide] | 4.96 | 4.49 | –
NS(=O)(=O)c1cccc(NC(=O)Cn2ccc(-c3ccc(C(=O)NO)s3)n2)c1 [Example 1 (dc), 5-{1-[(3-Sulfamoyl-phenylcarbamoyl)-methyl]-1H-pyrazol-3-yl}-thiophene-2-carboxylic acid hydroxyamide] | – | – | 6.62
O=C(NO)c1ccc(-c2ccccc2)s1 [Example 1 (g), 5-Phenyl-thiophene-2-carboxylic acid hydroxyamide] | 4.51 | 4.36 | 6.05
O=C(NO)c1ccc(-c2nccc(OCc3ccccc3)n2)s1 [Example 1 (z), 5-(4-Benzyloxy-pyrimidin-2-yl)-thiophene-2-carboxylic acid hydroxyamide] | 5.64 | 5.14 | 7.12

Other lines, results leading:

pIC50 [1] | pIC50 [2] | pIC50 [3] | SMILES
6.22 | 5.70 | 7.21 | O=C(NO)c1ccc(-c2ccc(NCc3cc4ccccc4o3)cn2)s1 [Example 1 (ba), 5-{5-[(Benzofuran-2-ylmethyl)-amino]-pyridin-2-yl}-thiophene-2-carboxylic acid hydroxyamide]
5.68 | 5.35 | 6.82 | O=C(NO)c1ccc(-c2ccn(Cc3ccccc3)n2)s1 [Example 1 (l), 5-(1-Benzyl-1H-pyrazol-3-yl)-thiophene-2-carboxylic acid hydroxyamide]
